Source: PMC9084191 (European Journal of Pharmaceutics and Biopharmaceutics, 2022)
Where two headings read alike, the source gives them in different places.

Assays:
[1] = cited from earlier work
[2] = Stability on storage at 40 °C/75% RH (PXRD, 19F NMR, HPLC); type: physicochemical; conditions: 2 weeks, 40 °C/RH 75%; for Drug content reduction (%): HPLC
Experimental: The salt form of DLM was prepared using a Buchi Rotavapor-R (Newcastle, Delaware). DLM free base and sulfonic acid were added at drug-acid 1:1 molar ratio in a mixture of DCM and acetone (1:1 v/v) where alcoholic solvents were avoided to prevent the formation of alkyl esters during salt synthesis. Solvents were removed by rotary evaporation at 40 °C. DLM salts were then kept under vacuum at room temperature overnight to remove residual solvents. DLM salts were characterized by ^1H-nuclear magnetic resonance (NMR) spectroscopy to confirm salt formation. Their physical and chemical stability were monitored following storage at 40 °C/75% relative humidity (RH) by measuring several physicochemical properties, including crystallinity (by powder X-ray diffraction, PXRD), impurities (by ^19F NMR spectroscopy), drug content (by HPLC as described above) and hygroscopicity (using dynamic vapor sorption analysis).
(§1) Crystallinity of ASDs and DLM salts was evaluated using a Rigaku Smartlab diffractometer (Rigaku Americas, The Woodlands, TX) equipped with a Cu–Kα radiation source and a D/tex ultradetector. Samples were added to glass sample holders, and powder patterns were recorded over the range of 4-40° 2θ at a scanning speed of 4° per min and a 0.02° step size with the voltage and current set to 40 kV and 44 mA, respectively.
Salt formation was confirmed by ^1H nuclear magnetic resonance (NMR) spectroscopy and impurities in DLM salts following preparation and storage were detected by ^19F NMR spectroscopy. Samples were dissolved in dimethyl sulfoxide-d6 (Cambridge Isotope Laboratories, Inc., Andover, MA) at a concentration of 20 mg/mL. All NMR spectra were acquired on a Bruker DRX 500 MHz spectrometer (Karlsruhe, Germany) equipped with a BBFO z-gradient probe operating at room temperature. For ^1H NMR spectra, the spectral sweep width was 20 ppm, acquisition time was 1.6 sec and number of scans was 16. For ^19F NMR spectroscopy, ^1H was decoupled during acquisition, spectral sweep width was 50 ppm, acquisition time was 1.4 sec and the number of scans was 64.

Water sorption analysis = type: physicochemical; conditions: for Water sorption (%) at 95 % RH: 37 °C
Experimental: Water sorption profiles of DLM salts and ASDs were measured by using a SGA-100 symmetrical gravimetric analyzer (TA Instrument, New Castle, DE) at 37 °C. Samples (10–20 mg) were flushed with dry air for 3 h. After drying, samples were exposed to increasing relative humidity (RH) steps from 5 to 95% with a maximum step time of 180 min. Vapor sorption profiles are recorded as the equilibrium value (the weight change was below 0.001%/min over 5 min) at each RH.

[3] = Glass transition temperature by DSC; type: physicochemical; conditions: for Tg: neat drug, salt or polymer
Experimental: The glass transition temperatures (Tg) of drug, polymers and ASD samples were determined using a TA Q2000 DSC equipped with an RCS90 refrigeration unit (TA Instruments, New Castle, DE). The temperature calibration was performed using indium and tin, while enthalpy calibration was conducted with indium. Samples (5–10 mg) were added to aluminum pans with a pinhole lid (Tzero pan, TA Instrument, DE). […] The heating and cooling cycle was repeated 3 times to remove residual solvent and thermal history, and the last cycle was used for analysis.

[4] = Nucleation induction time measurement; type: physicochemical; conditions: for Induction time (tind): 37 °C, no polymer
[5] = Release testing of tablets, single-stage PBS pH 6.5; type: physicochemical; conditions: PBS pH 6.5, single stage
Experimental: (§2) The ASDs were mixed with excipients and compressed to obtain tablets containing 5 mg DLM with respect to the free base. All dissolution studies of DLM tablets were conducted in triplicate in single-stage or two-stage pH-shift condition using a Hanson Vision G2 Classic 6 dissolution system (Teledyne Hanson Research, Chatsworth, CA). For single-stage testing, the tablets containing the ASDs were added to 50 mL PBS, pH 6.5 and monitored for 1 h at 37° C, with 150 rpm of stirring. For pH-shift experiments, release in the acidic stage was conducted in 45 mL HCl solution pH 1.6 for 1 h, followed by addition of 5 mL concentrated PBS (pH 7.3) to adjust the pH of solution to pH 6.5 and drug release was monitored for an additional 30 min. An in situ Rainbow fiber optic ultraviolet spectrometer coupled with 10 mm fiber optic dip probes (Pion, Billerica, MA, USA) was used to monitor drug concentration over time. Second derivative analysis was applied to correct the spectral baseline and a calibration curve of area under curve (AUC) of the range 330–350 nm was used to calculate the drug concentration.

[6] = Release testing of tablets, two-stage pH-shift (pH 1.6 to 6.5); type: physicochemical
Experimental: as §2

[7] = Crystallinity by PXRD following preparation; type: physicochemical; conditions: immediately following preparation
Experimental: as §1

[8] = Dynamic light scattering of DLM-rich nanodroplets; type: physicochemical; conditions: HPMCP and HPMCAS solutions 300 µg/mL, drug 50 µg/mL, PBS pH 6.5, 3-h period
Experimental: The size of DLM-rich droplets formed above the amorphous solubility was measured by dynamic light scattering (DLS) using a Nano-Zetasizer (Nano-ZS, Malvern Instruments, Westborough, MA). […] To evaluate the impact of polymers on nanodroplet stability, polymers were pre-dissolved in solution at a concentration of 300 μg/mL and drug was introduced at 50 μg/mL. Samples were monitored for up to 3 h after liquid–liquid phase separation was initiated.

[9] = cited from earlier work; remark: listed apart in the source
[10] = set-up: method as in earlier work; conditions: predicted pKa; cited from earlier work
[11] = set-up: method as in PMID 24881816; conditions: predicted log P calculated by ALOGPS; cited from earlier work
[12] = value of the strongest acidity, ref [3, 4] of supplement
[13] = value of the strongest acidity, ref [2] of supplement

Q: For O=S(=O)(O)c1cccc2c(S(=O)(=O)O)cccc12 [Naphthalenedisulfonic, 1,5-naphthalenedisulfonic acid], which pKa [1, 12] is on record?
A: 0.17 [3, 4]

Q: Which results are given for C[C@]1(COc2ccc(N3CCC(Oc4ccc(OC(F)(F)F)cc4)CC3)cc2)Cn2cc([N+](=O)[O-])nc2O1.O=S(=O)(O)c1ccc(Cl)cc1 [Closylate]?
A: Impurity (19F NMR) (%) [2]: 2.3%; Liquefaction [2]: liquefaction; Drug content reduction (%) [2]: 3.1%; Water sorption (%) at 95 % RH (Water sorption analysis): 5.8%; Tg [3]: 90.1 °C

Q: With Tosylate as the molecule, how does the “Impurity (19F NMR) (%)” value [2] read?
A: 1.0%

Q: And the Liquefaction [2]?
A: liquefaction

Q: What about the “Drug content reduction (%)” value [2] of the same molecule?
A: 2.1%

Q: And the “Induction time (tind)” value ([4]; FaSSGF (pH 1.6), at amorphous solubility)?
A: 1.0 min

Q: And the “Induction time (tind)” value ([4]; PBS pH 6.5, at amorphous solubility)?
A: 18.5 min

Q: And the “Water sorption (%) at 95 % RH” value (Water sorption analysis)?
A: 6.1%

Q: And the Tg [3]?
A: 90.2 °C

Q: Which “Impurity (19F NMR) (%)” value [2] does the source give for C[C@]1(COc2ccc(N3CCC(Oc4ccc(OC(F)(F)F)cc4)CC3)cc2)Cn2cc([N+](=O)[O-])nc2O1.C[C@]1(COc2ccc(N3CCC(Oc4ccc(OC(F)(F)F)cc4)CC3)cc2)Cn2cc([N+](=O)[O-])nc2O1.O=S(=O)(O)CCS(=O)(=O)O [Edisylate (2:1)] here?
A: 1.0%

Q: And the “Drug content reduction (%)” value [2]?
A: 0.8%

Q: What about the “Drug release (in words)” value [5] of the same molecule?
A: no release

Q: And the “Water sorption (%) at 95 % RH” value (Water sorption analysis)?
A: 11.6%

Q: And the Tg [3]?
A: 117.8 °C

Q: What about the “Release in acidic medium (in words)” value ([6]; acid stage of pH-shift experiment) of the same molecule?
A: slightly higher than that observed for DLM free base

Q: With CC1(C)[C@@H]2CC[C@@]1(CS(=O)(=O)O)C(=O)C2.C[C@]1(COc2ccc(N3CCC(Oc4ccc(OC(F)(F)F)cc4)CC3)cc2)Cn2cc([N+](=O)[O-])nc2O1 [Camsylate] as the molecule, how does the “Impurity (19F NMR) (%)” value [2] read?
A: 2.0%

Q: And the “Drug content reduction (%)” value [2]?
A: 6.1%

Q: What about the “Water sorption (%) at 95 % RH” value (Water sorption analysis) of the same molecule?
A: 8.1%

Q: What about the Tg [3] of the same molecule?
A: 97.9 °C

Q: Which results are given for CCS(=O)(=O)O [Ethanesulfonic, Ethanesulfonic acid]?
A: pKa [1, 13]: -1.68; pKa ([1]; value of the strongest acidity, ref [3] of supplement): -2.05

Q: Which pKa ([1]; value of the strongest acidity, ref [6] of supplement) does the source give for CC1(C)C2CC[C@@]1(CS(=O)(=O)O)C(=O)C2 [Camphorsulfonic, (1S)-(+)-10-camphorsulfonic acid] here?
A: 1.2 [6]

Q: With CC1(COc2ccc(N3CCC(Oc4ccc(OC(F)(F)F)cc4)CC3)cc2)Cn2cc([N+](=O)[O-])nc2O1.CC1(COc2ccc(N3CCC(Oc4ccc(OC(F)(F)F)cc4)CC3)cc2)Cn2cc([N+](=O)[O-])nc2O1.O=S(=O)(O)c1cccc2c(S(=O)(=O)O)cccc12 (stereo not shown) [Napadisylate (2:1)] as the molecule, how does the “Crystallinity by PXRD (in words)” value [7] read?
A: partial crystallization

Q: With O=S(=O)(O)c1ccccc1 [Benzenesulfonic, benzenesulfonic acid] as the molecule, how does the pKa [1, 13] read?
A: -2.8

Q: Which results are given for C[C@]1(COc2ccc(N3CCC(Oc4ccc(OC(F)(F)F)cc4)CC3)cc2)Cn2cc([N+](=O)[O-])nc2O1.O=S(=O)(O)CCS(=O)(=O)O [DLM-edisylate (1:1)]?
A: Water sorption (%) at 95 % RH (Water sorption analysis): 59%; Tg [3]: 53.9 °C

Q: Which pKa ([1]; value of the strongest acidity, ref [5] of supplement) does the source give for O=S(=O)(O)c1ccc(Cl)cc1 [Chlorobenzenesulfonic, 4-chlorobenzenesulfonic acid] here?
A: -0.61 [5]

Q: With C[C@]1(COc2ccc(N3CCC(Oc4ccc(OC(F)(F)F)cc4)CC3)cc2)Cn2cc([N+](=O)[O-])nc2O1 [Delamanid] as the molecule, how does the Nanodroplet size change [8] read?
A: no notable change

Q: What about the “Log P” value [9] of the same molecule?
A: 5.67

Q: And the pKa [10]?
A: 3.99

Q: And the Induction time ([4]; PBS pH 6.5, Eud-L100 300 µg/mL)?
A: 10.2 ± 3.1 min

Q: What about the Induction time ([4]; PBS pH 6.5, HPMC 300 µg/mL) of the same molecule?
A: about 50 min

Q: What about the Induction time ([4]; PBS pH 6.5, HPMCAS 300 µg/mL) of the same molecule?
A: more than 1000 min

Q: And the Induction time ([4]; PBS pH 6.5, HPMCP 300 µg/mL)?
A: more than 1000 min

Q: And the Induction time ([4]; PBS pH 6.5, PVPVA 300 µg/mL)?
A: more than 1000 min

Q: What about the Induction time ([4]; in presence of PVPVA, HPMCAS or HPMCP) of the same molecule?
A: > 720 min

Q: And the “Drug release (in words)” value [5]?
A: no release was detected

Q: And the “Log P” value [11]?
A: 6.14

Q: What about the “Hygroscopicity (in words)” value (Water sorption analysis) of the same molecule?
A: non-hygroscopic

Q: And the pKa [1]?
A: 4.3

Q: What about the “Glass forming ability class” value ([3]; cooling from the melt at 50 °C/min) of the same molecule?
A: Class I

Q: And the Tg [3]?
A: 43.3 °C

Q: And the Tg ([3]; listed as delamanid free base)?
A: 43.3 ± 0.4 °C

Q: And the “Drug concentration released in acid stage” value ([6]; pH-shift experiment, low pH (1.6) stage)?
A: around 20 µg/mL

Q: With O.O.O=S(=O)(O)CCS(=O)(=O)O [Ethanedisulfonic, 1,2-Ethanedisulfonic acid dihydrate] as the molecule, how does the pKa [1, 12] read?
A: -2.1 [3, 4]
